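Compound exposure: 48 hours, 5 concentrations, 96-well plates. GI50 = concentration required for 50% inhibition of growth.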 Calls of active or inactive are those of the source. Cut-off read from the data, not from the text of the source: active = GI50 up to about 1.1 µM and inactive = higher.

This note sets out measurements from ChEMBL document CHEMBL1201862, “PubChem BioAssay data set” (2004).

What all share (experiment): growth of human tumour cells (NCI), 48 h
Experiment [1] concerns OVCAR-3.
The test system of experiment [2] is PC-3.
Experiment [3] relates to SK-OV-3.
The subject of experiment [4] is MDA-MB-435.
In experiment [5] the test system is UACC-62.
Experiment [6] deals with M14.
Experiment [7] relates to HCC 2998.
Experiment [8] has as its system CCRF-CEM.
For experiment [9], the system named is MDA-N.
The test system of experiment [10] is COLO 205.
For experiment [11], the system named is Malme-3M.
Experiment [12] relates to ACHN.
Experiment [13] concerns DU-145.
The subject of experiment [14] is HCT-116.
Experiment [15] concerns RXF 393.
For experiment [16], the system named is SF-295.
Experiment [17] deals with SF-268.
Experiment [18] concerns OVCAR-4.
The test system of experiment [19] is SF-539.
The test system of experiment [20] is HOP-92.

In the case of `NC(=O)c1ncn(C2OC(CO)C(O)C2O)c1NC=O` (stereo not drawn), the GI50 in [1], in [2], in [3], in [4], in experiment [5] and in experiment [6] was > 100 µM (inactive) throughout. For the same compound, the GI50 in [7], in experiment [8], in [9], in experiment [10], in experiment [11] and in experiment [12] was > 100 µM (inactive) throughout. For the same compound, the GI50 in [13], in [14], in experiment [15], in experiment [16], in experiment [17] and in [18] was > 100 µM (inactive) in each case. For the same compound, the GI50 in experiment [19] and in experiment [20] was > 100 µM (inactive) each time.

On to `Brc1ccc2[nH]cc(-c3csc(-c4ccccn4)n3)c2c1`, for which the GI50 was 9.31 µM (inactive) in experiment [1]; 14.2 µM (inactive) in experiment [2]; 33 µM (inactive) in experiment [3]; 41.8 µM (inactive) in [4]; 8.18 µM (inactive) in [5]; 22.2 µM (inactive) in [6]. The GI50 in [7] was 8.75 µM (inactive); in experiment [8] it was 13.2 µM (inactive); in experiment [9] it was 27.6 µM (inactive); in experiment [10], 13.4 µM (inactive); in experiment [11] it was 22.1 µM (inactive); in experiment [12], 5.85 µM (inactive). Also, the GI50 in experiment [13] is 17.9 µM (inactive); in experiment [14], 15.1 µM (inactive); in experiment [15], 6.03 µM (inactive); in experiment [16] it was 6.68 µM (inactive); in experiment [17], 30.6 µM (inactive); in [18], 14.4 µM (inactive). Moreover, the GI50 in experiment [19] was 25.3 µM (inactive); in [20] it was 20.8 µM (inactive).

On to `COc1ccc2cc(CNCCCCCCNC(=O)Nc3cccc4ccccc34)ccc2c1`, for which the GI50 in experiment [1], in [2], in experiment [3], in experiment [4], in experiment [5] and in [6] was > 100 µM (inactive) in each case. Also, the GI50 in experiment [7], in experiment [8], in [9], in experiment [10], in [11] and in [12] was > 100 µM (inactive) in each case. Further, the GI50 in experiment [13], in [14], in experiment [15], in experiment [16], in experiment [17] and in [18] was > 100 µM (inactive) in each case. In addition, the GI50 in [19] and in experiment [20] was > 100 µM (inactive) throughout.

With `C[N+](C)(C)C(Cc1c[nH]c(=S)[nH]1)C(=O)O` (stereo not drawn), the GI50 in [1], in [2], in experiment [3], in experiment [4], in experiment [5] and in experiment [6] was > 100 µM (inactive) each time. Besides, the GI50 in [7], in experiment [8], in [9], in experiment [10], in [11] and in [12] was > 100 µM (inactive) in each case. Also, the GI50 in experiment [13], in experiment [14], in [15], in experiment [16], in experiment [17] and in experiment [18] was > 100 µM (inactive) each time. Also, the GI50 in experiment [19] and in [20] was > 100 µM (inactive) each time.

On to `COc1cc(Nc2nnc3n2S(=O)(=O)c2cc(C)c(Cl)cc2S3)cc(OC)c1`, for which the GI50 in experiment [1] was 5.19 µM (inactive); in experiment [2] it was 8.83 µM (inactive); in experiment [3], 14.2 µM (inactive); in experiment [4], 4.28 µM (inactive); in experiment [5], 18.1 µM (inactive); in experiment [6], 59.3 µM (inactive). Further, the GI50 in experiment [7] was 6.18 µM (inactive); in experiment [8], 4.29 µM (inactive); in experiment [9], 4.68 µM (inactive); in [10], 13.2 µM (inactive); in experiment [11], 2.17 µM (inactive); in [12], 5.21 µM (inactive). Further, the GI50 in [13] was 10.7 µM (inactive); in experiment [14] it was 14 µM (inactive); in [15], 10.5 µM (inactive); in experiment [16], 21.5 µM (inactive); in experiment [17] it was 11.5 µM (inactive); in [18], 4.3 µM (inactive). The GI50 was 2.12 µM (inactive) in [19] and 5.26 µM (inactive) in [20].

As to `N#C/C(=C\c1ccc2[nH]ccc2c1)C(=O)NCCCCNC(=O)/C(C#N)=C/c1ccc2[nH]ccc2c1`, the GI50 in experiment [1] is > 31.6 µM (inactive); in experiment [2] it was > 10 µM (inactive); in [3], > 31.6 µM (inactive); in experiment [4] it was > 10 µM (inactive); in experiment [5], > 31.6 µM (inactive); in [6] it was > 31.6 µM (inactive). Moreover, the GI50 in [7] was > 31.6 µM (inactive); in experiment [8] it was > 31.6 µM (inactive); in experiment [9] it was > 10 µM (inactive); in experiment [10] it was > 31.6 µM (inactive); in experiment [11], > 31.6 µM (inactive); in experiment [12] it was > 31.6 µM (inactive). Besides, the GI50 is > 10 µM (inactive) in experiment [13]; > 31.6 µM (inactive) in [14]; > 10 µM (inactive) in experiment [15]; > 31.6 µM (inactive) in [16]; > 31.6 µM (inactive) in experiment [17]; > 31.6 µM (inactive) in experiment [18]. The GI50 in experiment [19] and in [20] was > 31.6 µM (inactive) throughout.

With `CC1(CCc2ccccc2)CC1(Br)Br` (stereo not drawn), the GI50 in experiment [1] is 18 µM (inactive); in [2], 40.8 µM (inactive); in [3], > 100 µM (inactive); in experiment [4] it was 25.5 µM (inactive); in [5], 52 µM (inactive); in [6], 44.8 µM (inactive). Besides, the GI50 was 40.9 µM (inactive) in experiment [7]; 23.6 µM (inactive) in experiment [8]; 32.7 µM (inactive) in experiment [9]; 20.8 µM (inactive) in experiment [10]; 22.5 µM (inactive) in experiment [11]; 26.3 µM (inactive) in experiment [12]. The GI50 is 57.9 µM (inactive) in experiment [13]; 30.3 µM (inactive) in [14]; 20.7 µM (inactive) in experiment [15]; 25.4 µM (inactive) in [16]; 41.4 µM (inactive) in [17]; 30.3 µM (inactive) in [18]. Further, the GI50 in experiment [19] is > 100 µM (inactive); in experiment [20], 13 µM (inactive).

For the compound `Cc1c2oc3c(C)cc(F)c(C(=O)NC4C(=O)NC(C(C)C)C(=O)N5CCCC5C(=O)N(C)CC(=O)N(C)C(C(C)C)C(=O)OC4C)c3nc-2c(C(=O)NC2C(=O)NC(C(C)C)C(=O)N3CCCC3C(=O)N(C)CC(=O)N(C)C(C(C)C)C(=O)OC2C)c(N)c1=O` (stereo not drawn), the GI50 is 0.0336 µM (active) in experiment [1]; 0.0179 µM (active) in experiment [2]; 0.16 µM (active) in [3]; 0.00757 µM (active) in [4]; 0.0617 µM (active) in experiment [5]; 0.0826 µM (active) in experiment [6]. The GI50 in [7] is 0.109 µM (active); in experiment [8], < 0.001 µM (active); in experiment [9] it was 0.0024 µM (active); in experiment [10], 0.0267 µM (active); in experiment [11] it was 0.00149 µM (active); in [12] it was 0.0832 µM (active). Also, the GI50 was 0.115 µM (active) in [13]; 0.01 µM (active) in [14]; 0.106 µM (active) in experiment [15]; 0.00708 µM (active) in experiment [16]; < 0.001 µM (active) in experiment [17]; 0.711 µM (active) in [18]. In addition, the GI50 in experiment [19] was 0.0681 µM (active); in experiment [20], 0.154 µM (active).

Regarding `CC(C)CC(NC(=O)C(CI)Cc1ccccc1)C(=O)Nc1ccccc1` (stereo not drawn), the GI50 in experiment [1], in [2], in [3], in experiment [4], in experiment [5] and in experiment [6] was > 100 µM (inactive) each time. In addition, the GI50 in experiment [7], in experiment [8], in experiment [9], in experiment [10], in experiment [11] and in experiment [12] was > 100 µM (inactive) throughout. The GI50 in experiment [13] is > 100 µM (inactive); in experiment [14] it was > 100 µM (inactive); in [15], > 100 µM (inactive); in experiment [16], > 100 µM (inactive); in experiment [18], 50 µM (inactive); in experiment [19], > 100 µM (inactive). Further, in experiment [20], the GI50 was > 100 µM (inactive).

As for `CC1CCCc2c(CC3CC(=O)NC(=O)C3)nc(N)nc21` (stereo not drawn), the GI50 in experiment [1], in [2], in experiment [3], in [4], in experiment [5] and in experiment [6] was > 100 µM (inactive) each time. Besides, the GI50 in [7], in [8], in [9], in experiment [10], in [11] and in experiment [13] was > 100 µM (inactive) throughout. For the same compound, the GI50 in experiment [14], in experiment [15], in experiment [16], in [17], in experiment [18] and in experiment [19] was > 100 µM (inactive) throughout. Further, the GI50 in [20] is > 100 µM (inactive).
